From patent US7355074B2, “Compounds having aromatic rings and side-chain amide-functionality and a method for transporting monovalent anions across biological membranes using the same” (The University of Maryland, priority 2003, dated 2008)
Marks after values point to notes of the source that are not given here.

How the values were obtained:
[1] = pH-assisted fluorimetric transport assay with calixarene amides (HPTS-loaded liposomes); format: biochemical; conditions: for ion transport in sulfate buffers: sodium sulfate-filled LUVs in isotonic solution, up to 50 μM
Protocol: The ability of 1 and 2 to mediate ion flux across a lipid bilayer was studied fluorimetrically. A solution of 1 or 2 was added to a suspension of EYPC large unilamellar vesicles (LUVs) containing the pH-sensitive dye pyranine. An NaOH solution was added to the extravesicular buffer to create a gradient of approximately one pH unit. The resulting electrostatic potential, caused by proton efflux from the liposomes, can be compensated by cation influx or anion efflux, as mediated by the exogenous ligand. Ion transport across the membrane was signaled by the increase in relative fluorescence that accompanied the rise in intravesicular pH.
Liposome Preparation. EYPC HPTS-Containing LUVs, egg yolk 1-α-phosphatidylcholine (EYPC, 60 mg, […]) was dissolved in a CHCl3MeOH mixture, the solution was evaporated under reduced pressure, and the resulting thin film was dried under high vacuum for 2 h. The lipid film was hydrated in 1.2 mL of phosphate buffer (10 mM sodium phosphage, pH=6.4, 75-100 mM MX, M=Na^+, K^+, Cs^+, X=[…], SO4^2−) containing 10 μM HPTS (pyranine 8-hydroxypyrene-1,3,6-trisulfonic acid trisodium salt) for 2 h. The LUV suspension (1 mL) was submitted to high-pressure extrusion at room temperature (2) extrusions through a 0.1 μM polycarbonate membrane afforded LUVs with a diameter of 100 nm). The LUV suspension was separated from extravesicular dye by size exclusion chromatography (SEC) stationary phase: Sephadex G-10, mobile phase:phosphate buffer) and diluted with the same phosphate buffer to give a stock solution with a lipid concentration of 11 mM (assuming 100% of lipid was incorporated into liposomes).
Fluorimetric Transport Assays. pH-Assisted Transport Assays. Typically, 100 μL of HPTS-loaded vesicles (stock solution) was suspended in 1.85 mL of the corresponding buffer and placed into a fluorimetric cell. HPTS emission at 510 nm was monitored with excitation wavelengths at 403 and 460 nm simultaneously. During the experiment, 20 μL of a 0-10 mM THF solution of the compound of interest was added through an injection port, followed by injection of 21 μL of 0.5 M aqueous NaOH. Addition of the NaOH caused a pH increase of approximately 1 pH unit in the extravesicular buffer. Maximal changes in dye emission were obtained at the end of each experiment by lysis of the liposomes with detergent (40 μL of 5% aqueous Triton x100). The final transport trace was obtained as a ratio of the emission intensities monitored at 460 and 403 nm and normalized to 100% of transport.

[2] = intravesicular pH of LUVs experiencing a Cl- gradient (calixarene amides); format: biochemical; conditions: NaCl-loaded LUVs in isosmotic Na2SO4 buffer
Protocol: FIG. 8 illustrates changes in intravesicular pH upon addition of calixarene tetrabutylamide and calixarene octabutylamide to NaCl^+ loaded vesicles suspended in a sulfate phosphate buffer (emission of HPTS is used to monitor the pH changes in LUVs). At t=60 s, 20 μL of 500 μM of calixarene tetrabutylamide 2 (top trace) or the octabutylamide 3 (bottom trace) was added to 1.95 mL of a LUV suspension to give 1:100 ligand:lipid molar ratio. At t=500 s, 40 μL of 5% Triton X-100 was added. Intravesicular pH values were obtained as a function of the ratio of HPTS emission intensities at 510 nm, when excited at […]. The calibration was performed by measuring the HPTS emission intensities and the pH values of a […] HPTS solution in 10 mM phosphate buffer containing 100 mM NaCl. The calibration equation obtained (pH=1.1684×log (I0I1)+6.9807, r=0.998, where I0 is the emission intensity with excitation at […]) was used to convert the emission intensities into actual pH values.
The pH reached its maximum 250 s after addition of 2 and held constant until the liposomes were lysed with detergent. […] In effect, compound 2 moves […] along with Cl^− down the chloride gradient, consequently building a pH gradient across the membrane. Therefore, NaCl filled vesicles lose Cl^− and H^+ upon addition of 2 and become more alkaline.
Calcein-Release Assay. Calcein-loaded vesicles (100 μL of the stock solution), filled with a saline phosphate buffer (10 mM sodium phosphate, pH 6.4, […] NaCl), were suspended in 1.85 mL of an isoosmotic phosphate sulfate buffer (10 mM sodium phosphate, pH 6.4^−75 mM (Na2SO4) and placed into a fluorimetric cell. HPTS emission at 510 nm was monitored with excitation wavelengths at 403 and 460 nm simultaneously. During the experiment, 20 μL of a 0-500 μM THF solution of the compound of interest was added through an injection port. Intravesicular pH values were obtained as a function of the ratio of HPTS emission intensities at 510 nm, when excited at 403 and 460 nm. […]

[3] = sodium picrate extraction in CDCl3 monitored by 1H NMR; format: binding
Protocol: FIG. 9 ^1H NMR spectrum (400 MHz, CDCl3, 22° C.) of (A) calixarene octabutylamide (5 mM) in CDCl3, (B) the same compound after addition of 1 equiv. of NaPic. (C) the same compound after addition of 2 equiv. of NaPic.
The secondary amide NH and the core aromatic ring framework, in this case the calix[4]arene framework, are essential for the HCl transport activity of 2. Calix[4]arene octabutylamide 3 was used as a negative control for tetrabutylamide 2, as the lack of amide NH protons in 3 would preclude Cl^− binding. Instead, 3 should be a cation ionophore, much like tetrakis(diethylcarbamoylmethoxy)-p-tert-butylcalix[4]arene-1,3-alt that coordinates cations in the solid-state and solution. To confirm that 3 binds Na^+, sodium picrate extraction in CDCl3 was monitored by ^1H NMR spectroscopy. Complexation of the salt by 3 was evident. Two distinct complexes were formed, corresponding to a 1:1 and a 2:1 Na^+:3 stoichiometry. The 1:1 complex was generated by adding 1 equiv of solid sodium picrate to a solution of 3. Binding this Na^+ led to a symmetry loss for 3, indicated by doubling of the ^1H NMR peaks. […] In contrast, sodium picrate extraction by calix[4]arene tetrabutylamide 2 was not detected by ^1H NMR spectroscopy.

## CCCCNC(=O)COc1c2cccc1Cc1cccc(c1OCC(=O)NCCCC)Cc1cccc(c1OCC(=O)NCCCC)Cc1cccc(c1OCC(=O)NCCCC)C2 [calix[4]arene tetrabutylamide 2, Calix[4]arene tetrabutylamide]
[1]
  transport activity when buffer changed from NaCl to Na2SO4: essentially complete loss of transport activity
  ion transport in sulfate buffers: not mediated
[1]; 5 μM, 100 mM Na2SO4 inside pH 6.4 and outside pH 7.4, not corrected for unmediated exchange
  Initial Pseudo-first Order Transport Rate Constants, Na2SO4: 1.1^b,d ×10^−3 s^−1
[1]; 5 μM, 100 mM NaCl inside pH 6.4, 100 mM CsCl outside pH 7.4, not corrected for unmediated exchange
  Initial Pseudo-first Order Transport Rate Constants, CsCl: 7.7^b,c ×10^−3 s^−1
[1]; 5 μM, 100 mM NaCl inside pH 6.4, 100 mM KCl outside pH 7.4, not corrected for unmediated exchange
  Initial Pseudo-first Order Transport Rate Constants, KCl: 6.4^b,c ×10^−3 s^−1
[1]; 5 μM, 100 mM NaCl inside pH 6.4, 100 mM NaCl outside pH 7.4, not corrected for unmediated exchange
  Initial Pseudo-first Order Transport Rate Constants, NaCl: 6.8^b,c ×10^−3 s^−1
[1]; buffers containing Na, K or Cs
  cation selectivity of ion transport: nonselective toward the cation
[1]; chloride versus sulfate buffers
  anion transport selectivity: pronounced Cl^− over HSO4^− transport selectivity
[1]; extravesicular Na, K or Cs chloride, ligand:lipid ratio of 1:100
  transport activity: rapid exchange of intra-and extravesicular electrolytes
[1]; listed as calix[4]arene tetrabutylamide
  ion transport in sulfate buffers: No significant transport
[2]
  change of intravesicular pH / pH gradient formation: rapid increase in intravesicular pH
  time to maximum intravesicular pH after addition: 250 s
[3]
  sodium picrate extraction: not detected
